Results from patent publication US8541449B2, “Substituted isoquinolines and isoquinolinones as Rho kinase inhibitors” (Sanofi, priority 2008, dated 2013).

Key:
[1] = system: Protein Kinase G; conditions: Rho kinase versus Protein Kinase G; cited from earlier work
[2] = target: T1, recombinant human PKG1-beta (Homo sapiens, UniProt Q13976); experiment: Determination of Protein Kinase G inhibition (Caliper peptide phosphorylation assay); assay type: biochemical; conditions: recombinant human PKG1-beta versus ROCK II
T1 construct: Active recombinant human PKG1-beta (full-length, with N-terminal His-tag); His-tag (N); purchased Millipore GmbH, Schwalbach, Germany
T1 sequence (Q13976 1-686 isoform Q13976-2): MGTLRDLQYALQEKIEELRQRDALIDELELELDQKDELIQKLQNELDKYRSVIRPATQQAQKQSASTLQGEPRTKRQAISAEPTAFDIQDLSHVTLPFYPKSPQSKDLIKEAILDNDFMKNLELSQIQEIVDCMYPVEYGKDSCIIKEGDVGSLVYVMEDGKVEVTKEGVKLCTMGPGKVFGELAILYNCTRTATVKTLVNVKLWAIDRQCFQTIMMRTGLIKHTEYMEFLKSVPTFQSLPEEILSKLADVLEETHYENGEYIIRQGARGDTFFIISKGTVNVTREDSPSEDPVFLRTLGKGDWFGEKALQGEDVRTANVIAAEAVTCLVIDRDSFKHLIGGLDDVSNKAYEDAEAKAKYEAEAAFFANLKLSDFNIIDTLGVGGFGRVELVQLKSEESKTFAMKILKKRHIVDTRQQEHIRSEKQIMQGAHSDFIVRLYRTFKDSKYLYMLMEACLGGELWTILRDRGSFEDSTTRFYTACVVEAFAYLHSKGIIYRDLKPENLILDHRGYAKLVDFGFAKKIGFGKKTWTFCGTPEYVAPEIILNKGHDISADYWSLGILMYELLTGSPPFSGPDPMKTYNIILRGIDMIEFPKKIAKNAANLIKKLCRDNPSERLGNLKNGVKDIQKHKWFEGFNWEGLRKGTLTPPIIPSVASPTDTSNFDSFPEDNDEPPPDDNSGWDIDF
Method in brief: (§1)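 Full-length His-tagged PKG1-beta (150 ng/ml working) or His-tagged PKA residues 1-351 (30 ng/ml working) was mixed with compound in pH 7.4 Tris/MgCl2/DTT buffer. Fluorescein-peptide substrate and ATP (3 μM and 120 μM working) were then added for 60 min at 32 °C before an EDTA stop. Phosphopeptide was separated electrophoretically on a Caliper instrument to derive IC50.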

[3] = target: T2, recombinant human PKA (Homo sapiens, UniProt P17612); experiment: Determination of Protein Kinase A inhibition (Caliper peptide phosphorylation assay); assay type: biochemical; conditions: recombinant human PKA versus ROCK II
T2 construct: Active recombinant human PKA (residues 1-351, N-terminal His-tag); His-tag (N); purchased Invitrogen, Karlsruhe, Germany
Method in brief: as §1

[4] = target: T3, human recombinant ROCK II (Homo sapiens, UniProt O75116); experiment: Determination of Rho kinase inhibition (Caliper peptide phosphorylation assay); assay type: biochemical; conditions: 60 min at 32° C., negative decadal logarithm of the IC50
T3 construct: N-terminal His6-tagged recombinant human ROCK-II residues 11-552; His6 (N); purchased Millipore GmbH, Schwalbach, Germany
T3 sequence (O75116 11-552): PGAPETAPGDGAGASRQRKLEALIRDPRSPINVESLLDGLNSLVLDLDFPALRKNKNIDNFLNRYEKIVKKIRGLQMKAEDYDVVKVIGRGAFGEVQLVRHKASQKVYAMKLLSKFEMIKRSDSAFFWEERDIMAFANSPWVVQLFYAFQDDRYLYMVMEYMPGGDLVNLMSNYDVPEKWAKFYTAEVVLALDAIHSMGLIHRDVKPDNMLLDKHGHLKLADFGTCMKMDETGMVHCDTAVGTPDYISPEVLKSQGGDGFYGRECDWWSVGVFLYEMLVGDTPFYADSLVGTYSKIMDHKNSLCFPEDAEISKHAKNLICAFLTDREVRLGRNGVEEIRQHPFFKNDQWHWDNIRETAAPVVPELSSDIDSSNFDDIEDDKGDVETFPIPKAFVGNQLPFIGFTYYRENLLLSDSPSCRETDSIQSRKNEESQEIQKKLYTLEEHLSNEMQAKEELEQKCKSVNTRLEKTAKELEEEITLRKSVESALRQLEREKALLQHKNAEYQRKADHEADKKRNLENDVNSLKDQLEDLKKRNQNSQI
Method in brief: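 His6-tagged human ROCK II (residues 11-552) phosphorylated a fluorescein-labelled peptide for 60 min at 32° C in Tris-HCl pH 7.4 with MgCl2, DTT and BSA, using 3 μM peptide and 120 μM ATP as diluted stocks. EDTA-stopped; phosphopeptide separated and detected by Caliper mobility shift; IC50 determined.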

SMILES	Selectivity against PKG [2]	Selectivity against PKA [3]	IC50 [4] [nM]	pIC50 [4]	selectivity against Protein Kinase G [1] [fold]
C[C@@H](N)[C@H]1CC[C@H](C(=O)Nc2ccncc2)CC1 [Example Y-27632]					20
COc1ccc(C(N)[C@H]2CC[C@@H](Oc3cc4cc[nH]c(=O)c4cc3Cl)CC2)cc1 (single isomer, unassigned) [Example 36, 6-{4-[Amino-(4-methoxy-phenyl)-methyl]-cyclohexyloxy}-7-chloro-2H-isoquinolin-1-one]	>300	>300	10 to 100		
CC(C)(N)[C@]1(c2ccccc2)CC[C@H](Oc2cc3cc[nH]c(=O)c3cc2Cl)CC1 [Example 25, cis-6-[4-(1-Amino-1-methyl-ethyl)-4-phenyl-cyclo-hexyloxy]-7-chloro-2H-iso quinolin-1-one]	>100	>1000		+++++++ (8.0≦pIC50)	

Now from value to molecule, other results behind:

Selectivity against PKG [2]	Selectivity against PKA [3]	IC50 [4] [nM]	pIC50 [4]	SMILES	selectivity against Protein Kinase G [1] [fold]
>10	>100	100 to 1000		CC(N)(C1CCC(Oc2cc3cc[nH]c(=O)c3cc2Cl)CC1)C1CC1 (single isomer, unassigned) [Example 120, 6-{4-[1-Amino-1-cyclopropyl-ethyl]-cyclohexyloxy}-7-chloro-2H-isoquinolin-1-one]	
>10	>100	10 to 100		CC(N)(c1ccccc1)C1CCC(Oc2cc3cc[nH]c(=O)c3cc2Cl)CC1 (single isomer, unassigned) [Example 123, 6-{4-[1-Amino-1-phenyl-ethyl]-cyclohexyloxy}-7-chloro-2H-isoquinolin-1-one]	
>300	>300	10 to 100		NC(c1ccccc1)C1(c2ccccc2)CCC(Oc2cc3cc[nH]c(=O)c3cc2Cl)CC1 (single isomer, unassigned) [Example 42]	
